Source: US5728726A, “Method and compositions for inhibiting protein kinases” (Cor Therapeutics, Inc., priority 1995, dated 1998)
pIC50: −log10 of the molar value. Where two headings read alike, the source gives them in different places.

Tests used:
HS68 = assay: cell proliferation under normal tissue culture conditions, HS68; conditions: Homo sapiens, Hs68, 96 h, read-out: IC50 HS68
[1] = test system: human cell lines (HS68, HS 27, CCD18, and WS1); assay: cells
Protein Kinase C (PKC) = assay: Protein Kinase C non-radioactive kinase assay (UBI); conditions: at a concentration of 40 μm
Protein Kinase A (PKA) = Protein Kinase A (PKA) (Homo sapiens, UniProt P17612); assay: Protein Kinase A non-radioactive kinase assay (UBI)
HS68 cells = assay: PDGF BB-induced [3H]thymidine incorporation into HS68 cells; format: cell-based; conditions: Homo sapiens, Hs68, read-out: concentration blocking PDGF BB induced thymidine incorporation by 50%
Experimental: […]. Since there are many reports in the literature implicating PDGF in diseases such as glomerulonephritis, cancer, atherosclerosis, and restenosis we tested 292 for its ability to block PDGF induced cell proliferation. A human primary fibroblast cell line, HS68 (ATCC), was plated into 96 well dishes at 150,000 cells/well in media containing 10% fetal bovine serum in DMEM. The cells were incubated at 37° C. for 7-10 days at which time they had become confluent and quiescent. […] To determine the level of cell proliferation, […] of [^3 H ]thymidine were added to each well and incubation was continued for an additional 5 hours. Cells were then washed with 5% cold trichloroacetic acid (TCA), solubilized in 0.2N NaOH, 0.1% SDS and the amount of [^3 H]thymidine incorporation was determined. […].

CCD18 = assay: cell proliferation under normal tissue culture conditions, CCD18; format: cell-based; conditions: Homo sapiens, read-out: IC50 CCD18
[2] = test system: human cell lines (HS68, HS 27, CCD18, and WS1); conditions: 96 hours
HS27 = assay: cell proliferation under normal tissue culture conditions, HS27; format: cell-based; conditions: Homo sapiens, read-out: IC50 HS27
human beta PDGFR = human beta PDGFR (Homo sapiens, UniProt P09619); assay: beta PDGF receptor autophosphorylation in HR5 cells
Sequence of human beta PDGFR (P09619 33-1106): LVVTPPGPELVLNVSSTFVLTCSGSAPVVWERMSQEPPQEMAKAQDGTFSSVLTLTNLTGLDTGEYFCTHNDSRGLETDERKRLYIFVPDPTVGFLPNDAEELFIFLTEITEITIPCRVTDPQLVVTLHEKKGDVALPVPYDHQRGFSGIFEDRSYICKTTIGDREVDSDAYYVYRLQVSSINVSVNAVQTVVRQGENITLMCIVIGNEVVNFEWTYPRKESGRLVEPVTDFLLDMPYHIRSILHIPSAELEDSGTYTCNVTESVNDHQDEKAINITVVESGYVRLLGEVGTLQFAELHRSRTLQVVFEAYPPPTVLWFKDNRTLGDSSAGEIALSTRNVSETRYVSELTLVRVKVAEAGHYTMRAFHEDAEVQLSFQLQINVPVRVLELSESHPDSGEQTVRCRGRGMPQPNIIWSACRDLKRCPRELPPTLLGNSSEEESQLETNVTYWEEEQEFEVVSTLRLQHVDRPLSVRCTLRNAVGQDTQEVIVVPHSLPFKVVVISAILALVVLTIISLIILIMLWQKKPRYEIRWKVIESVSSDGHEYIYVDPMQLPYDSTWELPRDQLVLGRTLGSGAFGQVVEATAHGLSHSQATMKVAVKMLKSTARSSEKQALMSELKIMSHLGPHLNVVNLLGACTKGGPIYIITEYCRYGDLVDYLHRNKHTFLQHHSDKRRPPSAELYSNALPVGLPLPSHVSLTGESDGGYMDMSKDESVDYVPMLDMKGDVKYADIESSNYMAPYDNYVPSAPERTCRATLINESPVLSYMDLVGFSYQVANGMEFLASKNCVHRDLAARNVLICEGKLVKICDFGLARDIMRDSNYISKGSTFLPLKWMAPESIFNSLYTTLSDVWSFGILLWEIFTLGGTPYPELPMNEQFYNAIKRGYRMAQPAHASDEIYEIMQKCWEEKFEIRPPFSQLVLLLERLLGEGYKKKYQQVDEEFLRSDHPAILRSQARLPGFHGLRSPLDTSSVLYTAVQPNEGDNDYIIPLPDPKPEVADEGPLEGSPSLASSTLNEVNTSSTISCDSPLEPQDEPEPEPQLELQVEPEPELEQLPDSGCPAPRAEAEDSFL

human FGF receptor-1 = molecular target: T1, human FGF receptor-1 (Homo sapiens, UniProt P11362); assay: FGF receptor-1 autophosphorylation in CHO cells; format: cell-based
T1 construct: expressed in transfected cells; host or cells: CHO cells
T1 sequence (P11362 22-822): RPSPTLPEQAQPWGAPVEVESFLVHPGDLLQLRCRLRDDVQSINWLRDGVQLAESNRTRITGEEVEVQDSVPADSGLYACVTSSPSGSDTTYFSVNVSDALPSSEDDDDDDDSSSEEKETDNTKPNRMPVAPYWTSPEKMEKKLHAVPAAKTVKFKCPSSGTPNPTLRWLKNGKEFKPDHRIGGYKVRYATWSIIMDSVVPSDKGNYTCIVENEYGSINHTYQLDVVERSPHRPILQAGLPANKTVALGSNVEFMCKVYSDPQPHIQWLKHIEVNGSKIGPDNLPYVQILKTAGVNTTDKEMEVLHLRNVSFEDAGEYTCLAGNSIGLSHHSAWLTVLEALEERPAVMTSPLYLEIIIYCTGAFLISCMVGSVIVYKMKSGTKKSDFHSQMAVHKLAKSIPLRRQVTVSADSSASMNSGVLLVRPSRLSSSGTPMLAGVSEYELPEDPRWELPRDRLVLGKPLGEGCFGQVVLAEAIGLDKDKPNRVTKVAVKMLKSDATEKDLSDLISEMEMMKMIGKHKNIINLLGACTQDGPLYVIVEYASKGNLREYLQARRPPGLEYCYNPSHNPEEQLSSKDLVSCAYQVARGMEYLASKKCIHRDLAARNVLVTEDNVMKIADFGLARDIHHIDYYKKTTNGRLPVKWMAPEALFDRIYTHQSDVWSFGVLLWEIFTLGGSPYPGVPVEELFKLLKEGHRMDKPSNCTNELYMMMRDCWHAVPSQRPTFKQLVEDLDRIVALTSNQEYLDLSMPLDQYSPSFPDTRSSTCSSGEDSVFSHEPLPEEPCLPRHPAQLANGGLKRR
Experimental: In order to measure FGF receptor-1 autophosphorylation, the human FGF receptor-1 cDNA was stably over-expressed in CHO cells using standard techniques. These cells were grown to confluency in RPMI with 10% fetal bovine serum, the media was replaced with serum-free RPMI and incubation continued for 18 hours prior to stimulation with BFGF (75 ng/ml) for 10 min at 37° C. in the absence of presence or PTK inhibitors in a concentration range of 0.1-30 μM Cell lysates were prepared under the same conditions as described above for the EGF receptor assay. Lysates were incubated with a monoclonal antibody directed against the FGF receptor-1 extracellular domain (prepared at COR Therapeutics, South San Francisco, Calif.) and the immunoprecipitated receptor was subjected to SDS-PAGE and Western blot analysis with antiphosphotyrosine antibodies as described above for EGF receptor.

WS1 = assay: cell proliferation under normal tissue culture conditions, WS1; format: cell-based; conditions: Homo sapiens, read-out: IC50 WS1
recombinant c-src = recombinant c-src (Homo sapiens, UniProt P12931); assay: recombinant c-src kinase microtiter plate assay
Sequence of recombinant c-src (P12931 whole entry): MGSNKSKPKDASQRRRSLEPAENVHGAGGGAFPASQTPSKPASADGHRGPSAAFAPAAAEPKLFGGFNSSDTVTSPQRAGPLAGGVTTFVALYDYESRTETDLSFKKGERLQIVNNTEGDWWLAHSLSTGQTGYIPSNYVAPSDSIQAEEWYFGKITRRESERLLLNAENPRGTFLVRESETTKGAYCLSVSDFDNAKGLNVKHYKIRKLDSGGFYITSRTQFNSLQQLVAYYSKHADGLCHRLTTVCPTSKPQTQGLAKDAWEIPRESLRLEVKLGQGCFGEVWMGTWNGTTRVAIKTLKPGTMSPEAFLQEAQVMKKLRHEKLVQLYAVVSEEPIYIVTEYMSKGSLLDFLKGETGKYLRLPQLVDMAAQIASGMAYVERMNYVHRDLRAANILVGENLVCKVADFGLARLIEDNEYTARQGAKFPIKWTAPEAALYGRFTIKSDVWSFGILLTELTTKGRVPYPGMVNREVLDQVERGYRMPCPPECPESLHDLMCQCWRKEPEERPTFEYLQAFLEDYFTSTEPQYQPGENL
Experimental: After a 20 minute incubation at 37° C., the reactions were stopped by adding 10 ul of 50% acetic acid, the wells were washed and anti-phosphotyrosine antibody was used to detect the tyrosine phosphorylated substrate under the same conditions as described above for the detection of phosphorylated PDGF receptor.

## COc1cc(O)c2c(c1)/C=C/C[C@H](O)[C@H](O)C(=O)/C=C\C[C@H](C)OC2=O [Compound 292]
HS68
  pIC50: < 4.52
[1]; 96 h, read-out: decrease in cell growth
  inhibition at 30 µM: 10 to 20%
Protein Kinase C (PKC)
  reduction in PKC activity: did not achieve a 50% reduction
Protein Kinase A (PKA)
  pIC50: < 4.40
Protein Kinase A (PKA); at a concentration of 40 μm
  reduction in PKA activity: did not achieve a 50% reduction
HS68 cells
  pIC50: 7.80
CCD18; Table 3, 96 hours, 10% fetal bovine serum
  pIC50: < 4.52
[2]; concentrations up to 10 μm
  decrease in cell growth of any of the cell lines tested: no decrease
HS27; HS27, Table 3, 96 hours, 10% fetal bovine serum
  pIC50: < 4.52
Human beta PDGFR; read-out: concentrations at which complete inhibition was observed
  IC100: > 0.2 µM
Human FGF receptor-1; Table 2, inhibition of protein kinase activity
  pIC50: < 4.52
Human FGF receptor-1; concentrations as high as 30 μM
  inhibition of FGF receptor autophosphorylation: no detectable inhibition
WS1; WS1, Table 3, 96 hours, 10% fetal bovine serum
  pIC50: < 4.52

## COC(=O)[C@@]1(O)C[C@H]2O[C@]1(C)n1c3ccccc3c3c4c(c5c6ccccc6n2c5c31)C(=O)NC4 [Compound K252a, K252a, reference compound]
HS68
  pIC50: 5.30
[1]; read-out: concentration range inhibiting cell growth by 50%
  pIC50: 4.92 to 6.00
Protein Kinase A (PKA)
  pIC50: 7.15
Protein Kinase A (PKA); IC50 PKA, Table 2, inhibition of protein kinase activity
  pIC50: 7.15
CCD18; 96 h
  pIC50: 6.00
HS27; HS27, 96 h
  pIC50: 4.92
Recombinant c-src
  pIC50: 7.70
Human beta PDGFR
  pIC50: 6.57
WS1; WS1, 96 h
  pIC50: 5.30

## CN[C@@H]1C[C@H]2O[C@@](C)([C@@H]1OC)n1c3ccccc3c3c4c(c5c6ccccc6n2c5c31)C(=O)NC4 [Staurosporin, reference compound]
[2]
  concentration completely blocking the growth of all of the cell lines: 10 nM
